From the CheMixHub viscosity set
Where “and” joins values, the source holds several entries; their conditions need not be identical. Equal values may be shown once. ± gives the uncertainty stated by the source.

## C1COCCN1
293.15 K, 101 kPa
  viscosity: 2.12 ± 0.02 mPa·s and 2.282 ± 0.03 mPa·s
303.15 K, 101 kPa
  viscosity: 1.74 ± 0.02 mPa·s
313.15 K, 101 kPa
  viscosity: 1.45 ± 0.02 mPa·s
323.15 K, 101 kPa
  viscosity: 1.21 ± 0.01 mPa·s

## CC(=O)[O-].C[NH+]1CCCC1
298.15 K, 100 kPa
  viscosity: 3.78 ± 0.08 mPa·s

## CC(C)Br
298.15 K, 101 kPa
  viscosity: 0.4981 ± 0.028 mPa·s
303.15 K, 101 kPa
  viscosity: 0.4835 ± 0.028 mPa·s
308.15 K, 101 kPa
  viscosity: 0.4708 ± 0.027 mPa·s
313.15 K, 101 kPa
  viscosity: 0.4389 ± 0.026 mPa·s
318.15 K, 101 kPa
  viscosity: 0.4194 ± 0.025 mPa·s

## CC(CCO)CC(C)(C)C (stereo not drawn)
298.15 K, 101.33 kPa
  viscosity: 10.97 ± 0.4 mPa·s
303.15 K, 101.33 kPa
  viscosity: 10.44 ± 0.39 mPa·s
308.15 K, 101.33 kPa
  viscosity: 9.608 ± 0.36 mPa·s

## CC(O)CO (stereo not drawn)
293.15 K, 100 kPa
  viscosity: 54.6 ± 11 mPa·s and 58.75 ± 5.9 mPa·s and 59.2 ± 0.7 mPa·s
293.15 K, 101.3 kPa
  viscosity: 57.2 ± 0.2 mPa·s
298.15 K, 101.3 kPa
  viscosity: 43.5 ± 0.5 mPa·s and 43.6 ± 0.2 mPa·s
303.15 K, 100 kPa
  viscosity: 33.06 ± 0.69 mPa·s
303.15 K, 101 kPa
  viscosity: 34.28 ± 0.094 mPa·s and 33.1 ± 0.7 mPa·s
303.15 K, 101.3 kPa
  viscosity: 32.73 ± 0.42 mPa·s
308.15 K, 100 kPa
  viscosity: 25.31 ± 0.53 mPa·s and 24.9 ± 0.3 mPa·s
308.15 K, 101.3 kPa
  viscosity: 25.1 ± 0.3 mPa·s and 24.8 ± 0.1 mPa·s
313 K, 101 kPa
  viscosity: 20.2 ± 0.6 mPa·s
313.15 K, 100 kPa
  viscosity: 19.65 ± 2 mPa·s and 19.3 ± 0.2 mPa·s
313.15 K, 101 kPa
  viscosity: 20.43 ± 0.055 mPa·s and 19.65 ± 0.09 mPa·s and 21.46 ± 0.12 mPa·s
313.15 K, 101.3 kPa
  viscosity: 19.47 ± 0.23 mPa·s and 19.47 ± 0.14 mPa·s
318.15 K, 101.3 kPa
  viscosity: 15.36 ± 0.17 mPa·s and 15.2 ± 0.1 mPa·s and 15.36 ± 0.11 mPa·s
323.15 K, 100 kPa
  viscosity: 12.53 ± 0.26 mPa·s and 12.54 ± 1.3 mPa·s and 12.51 ± 0.28 mPa·s
323.15 K, 101 kPa
  viscosity: 12.2 ± 0.73 mPa·s
323.15 K, 101.3 kPa
  viscosity: 12.34 ± 0.14 mPa·s

## CCCCC(=O)[O-].CC[NH+](CC)CCO
293.15 K, 101 kPa
  viscosity: 62.45 ± 1.1 mPa·s
298.15 K, 101 kPa
  viscosity: 47.75 ± 0.81 mPa·s
303.15 K, 101 kPa
  viscosity: 37.12 ± 0.63 mPa·s
308.15 K, 101 kPa
  viscosity: 29.31 ± 0.5 mPa·s
313.15 K, 101 kPa
  viscosity: 23.48 ± 0.4 mPa·s
318.15 K, 101 kPa
  viscosity: 19.07 ± 0.32 mPa·s
323.15 K, 101 kPa
  viscosity: 15.68 ± 0.27 mPa·s

## CCCCCCCC[P+](CC)(CC)CC.N#Cc1ccc[n-]1
293.15 K, 100 kPa
  viscosity: 272 ± 39 mPa·s
298.15 K, 100 kPa
  viscosity: 189 ± 27 mPa·s
303.15 K, 100 kPa
  viscosity: 140 ± 20 mPa·s
313.15 K, 100 kPa
  viscosity: 82 ± 12 mPa·s

## CCCCn1cc[n+](C)c1.COP(=O)([O-])OC
293.15 K, 101 kPa
  viscosity: 895.4 ± 36 mPa·s
298.15 K, 101 kPa
  viscosity: 608.9 ± 21 mPa·s
303.15 K, 101 kPa
  viscosity: 426 ± 13 mPa·s
308.15 K, 101 kPa
  viscosity: 305.8 ± 8.1 mPa·s
313.15 K, 101 kPa
  viscosity: 224.9 ± 5.1 mPa·s
318.15 K, 101 kPa
  viscosity: 168.9 ± 3.3 mPa·s
323.15 K, 101 kPa
  viscosity: 129.4 ± 2.2 mPa·s

## CCC[N+]1(C)CCCC1.N#C[N-]C#N
313.15 K, 101 kPa
  viscosity: 18.6 ± 1.9 mPa·s

## Cc1ccccn1
293.15 K, 101 kPa
  viscosity: 0.808 ± 0.014 mPa·s
298.15 K, 101 kPa
  viscosity: 0.792 ± 0.013 mPa·s
298.18 K, 101 kPa
  viscosity: 0.751 ± 0.012 mPa·s
303.15 K, 101.3 kPa
  viscosity: 0.7406 ± 0.017 mPa·s
303.21 K, 101 kPa
  viscosity: 0.704 ± 0.011 mPa·s
308.23 K, 101 kPa
  viscosity: 0.663 ± 0.01 mPa·s
313.15 K, 101 kPa
  viscosity: 0.628 ± 0.011 mPa·s
313.15 K, 101.3 kPa
  viscosity: 0.6537 ± 0.015 mPa·s and 0.6534 ± 0.015 mPa·s
313.29 K, 101 kPa
  viscosity: 0.623 ± 0.01 mPa·s
318.33 K, 101 kPa
  viscosity: 0.588 ± 0.009 mPa·s
323.15 K, 101.3 kPa
  viscosity: 0.5843 ± 0.014 mPa·s

## ClC=C(Cl)Cl
293.15 K, 101 kPa
  viscosity: 0.568 ± 0.011 mPa·s
293.15 K, 101.33 kPa
  viscosity: 0.572 ± 0.011 mPa·s
298 K, 101 kPa
  viscosity: 0.69 ± 0.02 mPa·s
298.15 K, 101 kPa
  viscosity: 0.531 ± 0.005 mPa·s
298.15 K, 101.33 kPa
  viscosity: 0.529 ± 0.006 mPa·s and 0.618 ± 0.008 mPa·s
303 K, 101 kPa
  viscosity: 0.66 ± 0.01 mPa·s
303.15 K, 101 kPa
  viscosity: 0.52 ± 0.011 mPa·s and 0.523 ± 0.0045 mPa·s
303.15 K, 101.3 kPa
  viscosity: 0.509 ± 0.009 mPa·s and 0.515 ± 0.008 mPa·s
303.15 K, 101.32 kPa
  viscosity: 0.523 ± 0.0072 mPa·s
303.15 K, 101.33 kPa
  viscosity: 0.523 ± 0.004 mPa·s and 0.515 ± 0.015 mPa·s and 0.532 ± 0.01 mPa·s
308 K, 101 kPa
  viscosity: 0.63 ± 0.01 mPa·s
308.15 K, 101 kPa
  viscosity: 0.489 ± 0.005 mPa·s
308.15 K, 101.33 kPa
  viscosity: 0.588 ± 0.008 mPa·s
313 K, 101 kPa
  viscosity: 0.6 ± 0.01 mPa·s
313.15 K, 101 kPa
  viscosity: 0.482 ± 0.01 mPa·s and 0.531 ± 0.0071 mPa·s
313.15 K, 101.33 kPa
  viscosity: 0.486 ± 0.014 mPa·s and 0.473 ± 0.0092 mPa·s
318.15 K, 101 kPa
  viscosity: 0.45 ± 0.005 mPa·s
318.15 K, 101.33 kPa
  viscosity: 0.557 ± 0.007 mPa·s
323.15 K, 101 kPa
  viscosity: 0.445 ± 0.009 mPa·s and 0.472 ± 0.0063 mPa·s
